According to patent publication EP0406760B1, “Plant growth regulating composition” (SUMITOMO CHEMICAL COMPANY, LIMITED, priority 1989, dated 1991):

Experiments:
antocyanin production = experiment: Inhibitory effect on antocyanin production in red cabbage seedlings in water culture; assay type: in vivo, red cabbase (var.: Ruby Ball); settings: 5 days at 25°C under 8000 luxes, in contrast to the non-treated plot
Description: Water culture (10 ml) containing the compound (I) was charged in a reaction vessel, and on adsorbed cotton laid down therein 15 seeds of red cabbase (var.: Ruby Ball) were sowed and cultivated for 5 days at 25°C under 8000 luxes. The shoot of the […] cabbage was cut and antocyanin was extracted with 1N hydrochloric acid (5 ml). The amount of antocyanin thus extracted was calculated by meauring an absorption at 535 nm on a spectrophotometer. The concentration of the compound (I) which inhibits 50 % the antocyanin production was calculated in contrast to the non-treated plot. Still, neither abnormality in the vegetative part nor suppression of growth of the test plant due to Compound (I) could be observed.

wheat = experiment: Inhibitory effect on lignin production in wheat and softening of wheat culm; assay type: in vivo, Wheat (var.: Nohrin No. 61); set-up: key: -: unchanged; +++: prominently softened; settings: wettable powder applied to the soil, hardness of culms determined manually versus untreated
Source text: Wheat seeds (var.: Nohrin No. 61) were sowed in small pots (6 seeds/pot) and cultivated in a greenhouse for about one month. When differentiation of culm was recognized, a designated amount of the compound in the form of a wettable powder according to Formulation Example 2 was applied to the soil, and cultivation was continued until blooming. Hardness of wheat culms in contrast to those of untreated was manually determined and evaluated into four indices ranging from (-: unchanged) to (+++: prominently softened).

[1] = tested on: chlorogenic acid production; experiment: Inhibitory effect on chlorogenic acid production in sunflower; assay type: in vivo, Sunflowers (var.: Russian Sunflower); settings: 1000 ppm wettable powder sprayed over the flowers; seed endosperm, HPLC; non-treated 3.4
Description: Sunflowers (var.: Russian Sunflower) were grown in a greenhouse for two weeks and transplanted in Wagner's pots (1/5000 are) and cultivated for 2 months outdoors. When 5 to 10 days elapsed after blooming, a designated amount of the compound in the form of a wettable powder according to Formulation Example 2 was sprayed over the flowers, from which seeds were harvested. Endosperm of the seeds were crushed and subjected to boiling-extraction with ethanol and filtration. The filtrate was diluted with 0.05 M aqueous H₃PO₄ and further filtered. The amount of chlorogenic acid was quantitatively analysed by HPLC (column: Nucleosil C18 (8 mm x 25 cm); eluent: methanol : 0.05 M H₃PO₄ (35 : 75)).

scopolamine production = experiment: Promoting effect on scopolamine production in hairy root culture; assay type: cell-based, Duboisia leichhardtii; settings: per culture (50 ml), 28 days after addition
Description: Hairy root of Duboisia leichhardtii are known to produce scopolamine once vegetative parts were infected with Agrobacterium rhizogenes (Plant Science, 59, 191 - 201 (1989)). One hairy root of Duboisia (var.: DL47-1) (wet content, 100 mg) was inoculated in a liquid HF-3 medium (50 ml) and subjected to rotation-culture with a speed of 85 rotations/min at 25°C in the dark place. After twenty-one days, 1000-fold dilution of a dimethylsulfoxide solution of Compound (I) was added to the culture medium to make its final concentration constant. Twenty-eight days thereafter, scopolamine in the hairy roots and the medium was respectively extracted and its amount was measured on a high performance liquid chromatography (HPLC).

morningglory = experiment: Inhibitory effect on antocyanin production in morningglory (soil or foliar treatment); assay type: in vivo, morningglory (var.: Scarlet Ohara); settings: soil and foliar spray treatments
Description: Seeds of morningglory (var.: Scarlet Ohara) was sowed in small pots (diameter, 8 cm) and cultivated in a greenhouse. At the time of development of cotyledons (9 days after sowing), short-day treatment was performed for 1 week to induce flowering. Five days prior to flowering (length of buds being about 1 to 2 cm), a designated amount of the compound (I) was applied to the soil or sprayed to the foliage of the plant. Cultivation was continued, and color of petals was visually observed in contrast to the non-treated plot and evaluated into five indices ranging from (-: no influence) to (++++: completely whitened).

## Cc1c(Cl)cccc1NC(=N)C(=O)O [Compound No. 3, N-(3-chloro-2-methylphenyl)amidinoformic acid]
Antocyanin production
  Concentration of 50 % inhibition of antocyanin production: 0.02 ppm
wheat; 2 mg/pot
  Softening index: +++
[1]
  Content of chlorogenic acid: 1.0 µg/mg fr.wt

## Cc1c(F)cccc1NC(=N)C(=O)O [Compound No. 1, N-(3-fluoro-2-methylphenyl)amidinoformic acid]
Antocyanin production
  Concentration of 50 % inhibition of antocyanin production: 0.04 ppm
Scopolamine production; final concentration 0.1 mg/l
  Amount of scopolamine (mg) Medium: 2.7 mg
  Amount of scopolamine (mg) Root: 2.1 mg
  Amount of scopolamine (mg) Total: 4.8 mg
Scopolamine production; final concentration 1.0 mg/l
  Amount of scopolamine (mg) Medium: 3.4 mg
  Amount of scopolamine (mg) Root: 2.4 mg
  Amount of scopolamine (mg) Total: 5.8 mg
wheat; 4 mg/pot
  Softening index: +++
[1]
  Content of chlorogenic acid: 1.3 µg/mg fr.wt

## Cc1cc(F)ccc1NC(=N)C(=O)O [Compound No. 5, N-(4-fluoro-2-methylphenyl)amidinoformic acid]
Antocyanin production
  Concentration of 50 % inhibition of antocyanin production: 0.1 ppm

## Cc1ccc(Cl)cc1NC(=N)C(=O)O [Compound No. 4, N-(5-chloro-2-methylphenyl)amidinoformic acid]
Antocyanin production
  Concentration of 50 % inhibition of antocyanin production: 0.1 ppm

## NOC(Cc1ccccc1)C(=O)O (stereo not shown) [AOPP, 2-aminoxy-3-phenylpropionic acid, reference compound]
Antocyanin production
  Concentration of 50 % inhibition of antocyanin production: 4 ppm
morningglory
  phytotoxicity / adverse effect in the treated plants: severe phytotoxicity (withering of leaves)

## Cc1c(Cl)cccc1NC(=N)C(=O)[O-].[Na+] [Compound No. 30, sodium salt of N-(3-chloro-2-methylphenyl)amidinoformic acid]
Antocyanin production
  Concentration of 50 % inhibition of antocyanin production: 0.05 ppm

## CCOC(=O)C(=N)Nc1cccc(F)c1C [Compound No. 26, ethyl N-(3-fluoro-2-methylphenyl)amidinoformate]
Antocyanin production
  Concentration of 50 % inhibition of antocyanin production: 0.06 ppm

## Cc1c(Cl)cccc1NC(=N)C(=O)[O-].[K+] [Compound No. 31, potassium salt of N-(3-chloro-2-methylphenyl)amidinoformic acid]
Antocyanin production
  Concentration of 50 % inhibition of antocyanin production: 0.05 ppm
